Data on nine molecules can be found in patent US20250368649A1, “TETRAHYDROPYRIDOPYRIMIDINE PAN-KRAS INHIBITORS” (Mirati Therapeutics, Inc., priority 2022, published 2025).

Broadly, the IC50 is the concentration that inhibits the measured activity by half. Low values mean greater potency, high ones weaker potency. By inhibition is commonly meant the relative decrease from the control value, in per cent.

In one test the test system is ASPC1 cells. Put plainly: Inhibition of KRas-mediated phosphorylation of ERK (Cisbio HTRF pERK), ASPC1 cells. The class given is cell-based. As to conditions: Homo sapiens, AsPC-1 cells; for IC50: ASPC1, 3 h, 3 hr compound incubation, Cisbio pERK HTRF; for inhibition at 0.1 µM: ASPC1, single point at 100 nM, 3 hrs compound incubation. Background: Time-resolved FRET reads energy transfer from a long-lived donor to a nearby acceptor.

A further test concerns H727 cells. Briefly: Inhibition of KRas-mediated phosphorylation of ERK (Cisbio HTRF pERK), H727 cells. The class given is cell-based. The conditions noted are these: Homo sapiens; for IC50: NCI-H727, 3 h, 3 hr compound incubation, Cisbio pERK HTRF; for inhibition at 0.1 µM: NCI-H727, single point at 100 nM, 3 hrs compound incubation.
For a further test, the system named is A549 cells. Put plainly: Inhibition of KRas-mediated phosphorylation of ERK (Cisbio HTRF pERK), A549 cells. The class given is cell-based. As to conditions: Homo sapiens, single point at 100 nM, 3 hrs compound incubation.
For another test, the system named is H460 cells. Put plainly: Inhibition of KRas-mediated phosphorylation of ERK (Cisbio HTRF pERK), H460 cells. Type of test: cell-based. As to conditions: Homo sapiens, NCI-H460, single point at 100 nM, 3 hrs compound incubation.
The test system of the next test is HCT116 cells. Briefly: Inhibition of KRas-mediated phosphorylation of ERK (Cisbio HTRF pERK), HCT116 cells. Type of test: cell-based. As to conditions: Homo sapiens, HCT-116, single point at 100 nM, 3 hrs compound incubation.
A further test concerns H358 cells. Briefly: Inhibition of KRas-mediated phosphorylation of ERK (Cisbio HTRF pERK), H358 cells. The conditions noted are these: Homo sapiens, NCI-H358, single point at 100 nM, 3 hrs compound incubation. The class given is cell-based.
A further test has as its target KRas G12D (Homo sapiens, UniProt P01116, G12D). Put plainly: biochemical. As to conditions: Binding to KRas (IC50 nM) G12D, TR-FRET displacement, KRas G12D.
The next test deals with KRas G12R (Homo sapiens, UniProt P01116, G12R). Put plainly: biochemical. The conditions noted are these: Binding to KRas (IC50 nM) G12R, TR-FRET displacement, KRas G12R.
Another test concerns the target KRas G12V (Homo sapiens, UniProt P01116, G12V). Put plainly: biochemical. As to conditions: Binding to KRas (IC50 nM) G12V, TR-FRET displacement, KRas G12V.

Sequence of KRas G12D (P01116 1-169 isoform P01116-2 G12D): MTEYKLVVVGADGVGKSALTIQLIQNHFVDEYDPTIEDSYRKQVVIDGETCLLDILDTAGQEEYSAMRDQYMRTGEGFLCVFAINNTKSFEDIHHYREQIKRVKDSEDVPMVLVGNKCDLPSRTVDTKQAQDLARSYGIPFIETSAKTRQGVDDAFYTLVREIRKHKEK
Sequence of KRas G12V (P01116 1-169 isoform P01116-2 G12V): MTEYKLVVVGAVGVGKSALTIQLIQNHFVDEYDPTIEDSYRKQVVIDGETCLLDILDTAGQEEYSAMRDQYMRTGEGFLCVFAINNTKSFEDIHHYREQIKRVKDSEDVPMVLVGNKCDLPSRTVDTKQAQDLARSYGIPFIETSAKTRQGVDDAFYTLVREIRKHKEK
Sequence of KRas G12R (P01116 1-169 isoform P01116-2 G12R): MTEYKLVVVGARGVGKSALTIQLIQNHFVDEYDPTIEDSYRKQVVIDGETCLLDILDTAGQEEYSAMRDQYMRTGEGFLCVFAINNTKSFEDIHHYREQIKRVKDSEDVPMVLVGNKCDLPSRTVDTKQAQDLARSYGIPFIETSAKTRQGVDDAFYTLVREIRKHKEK

In the case of `CCc1c(F)ccc2cc(O)cc(N3CCc4c(nc(OC[C@@]56CCCN5C[C@H](F)C6)nc4N4CCCn5nc(C(=O)N6CC7CNC(C7)C6)cc5C4)C3)c12` (stereo partly drawn) [Example 234, 3,6-diazabicyclo[3.2.1]octan-3-yl(5-(7-(8-ethyl-7-fluoro-3-hydroxynaphthalen-1-yl)-2-(((2R,7aS)-2-fluorohexahydro-1H-pyrrolizin-7a-yl)methoxy)-5,6,7,8-tetrahydropyrido[3,4-d]pyrimidin-4-yl)-5,6,7,8-tetrahydro-4H-pyrazolo[1,5-a][1,4]diazepin-2-yl)methanone], the 50% inhibitory concentration (IC50) is 52 nM in the test with ASPC1 cells; 1560 nM with H727 cells; less than 2 nM at KRas G12D; 4 nM on KRas G12R; less than 2 nM at KRas G12V. For the same molecule, the inhibition at 0.1 µM with ASPC1 cells was 34%; in the test on H727 cells it was 22%; in the test on A549 cells, 9%; with H460 cells it was -4%; with HCT116 cells it was 14%; in the test with H358 cells, -28%.
`CCc1c(F)ccc2cc(O)cc(N3CCc4c(nc(OC[C@@]56CCCN5C[C@H](F)C6)nc4N4CCCn5nc(CN(C)S(=O)(=O)NC)cc5C4)C3)c12` [Example 237, 7-(8-ethyl-7-fluoro-3-hydroxy-1-naphthyl)-2-(((2R,7aS)-2-fluorotetrahydro-1H-pyrrolizin-7a(5H)-yl)methoxy)-4-(2-((methylsulfamoyl)methylamino)methyl-7,8-dihydro-4H-pyrazolo[1,5-a][1,4]diazepin-5(6H)-yl)-6,8-dihydro-5H-pyrido[3,4-d]pyrimidine]: the IC50 with ASPC1 cells worked out at 639 nM; in the test with H727 cells it was 1640 nM; on KRas G12D, 7 nM; at KRas G12R it was 19 nM; on KRas G12V, 13 nM. Moreover, the inhibition at 0.1 µM in the test on ASPC1 cells is 10%; with H727 cells it was 22%; in the test on A549 cells it was 30%; in the test with H460 cells it was -16%; with HCT116 cells, 5%; with H358 cells, 7%.
`CCc1c(F)ccc2cc(O)cc(N3CCc4c(nc(OC[C@@]56CCCN5C[C@H](F)C6)nc4N4CCCc5nn(C6CC6)cc5C4)C3)c12` [Example 239, 4-(4-(2-cyclopropyl-7,8-dihydropyrazolo[4,3-c]azepin-5(2H,4H,6H)-yl)-2-(((2R,7aS)-2-fluorohexahydro-1H-pyrrolizin-7a-yl)methoxy)-5,6-dihydropyrido[3,4-d]pyrimidin-7(8H)-yl)-5-ethyl-6-fluoronaphthalen-2-ol]: the concentration for half-maximal inhibition (IC50) worked out at 3140 nM in the test on ASPC1 cells; 4100 nM with H727 cells; 57 nM on KRas G12D; 21 nM on KRas G12R; 62 nM at KRas G12V. Besides, the inhibition at 0.1 µM in the test on ASPC1 cells is 6%; in the test on H727 cells it was -8%; in the test on A549 cells it was -9%; with H460 cells it was 11%; in the test on HCT116 cells it was -5%; in the test with H358 cells it was -8%.
Turning to `CCc1c(F)ccc2cc(O)cc(N3CCc4c(nc(OC[C@@]56CCCN5C[C@H](F)C6)nc4N4CCCCC(COCC(=O)NC)C4)C3)c12` (stereo partly drawn) [Example 245, 2-((1-(7-(8-ethyl-7-fluoro-3-hydroxynaphthalen-1-yl)-2-(((2R,7aS)-2-fluorohexahydro-1H-pyrrolizin-7a-yl)methoxy)-5,6,7,8-tetrahydropyrido[3,4-d]pyrimidin-4-yl)azepan-3-yl)methoxy)-N-methylacetamide], the IC50 in the test with ASPC1 cells was found to be 1460 nM; in the test with H727 cells, 1640 nM; at KRas G12D, 13 nM; at KRas G12R, 9 nM; at KRas G12V it was 8 nM. Also, the inhibition at 0.1 µM in the test on ASPC1 cells was 12%; in the test on H727 cells, 15%; in the test with A549 cells, 4%; with H460 cells it was 12%; with HCT116 cells it was 10%; with H358 cells, 5%.
For `CCc1c(F)ccc2cc(O)cc(N3CCc4c(nc(OC[C@@]56CCCN5C[C@H](F)C6)nc4N4CCCC5(C4)NC(=O)NC5=S)C3)c12` (stereo partly drawn) [Example 250, 7-(7-(8-ethyl-7-fluoro-3-hydroxynaphthalen-1-yl)-2-(((2R,7aS)-2-fluorohexahydro-1H-pyrrolizin-7a-yl)methoxy)-5,6,7,8-tetrahydropyrido[3,4-d]pyrimidin-4-yl)-4-thioxo-1,3,7-triazaspiro[4.5]decan-2-one], the concentration for half-maximal inhibition (IC50) stood at 283 nM in the test with ASPC1 cells; 763 nM with H727 cells; 19 nM on KRas G12D; 9 nM on KRas G12R; 10 nM at KRas G12V. Further, the inhibition at 0.1 µM was -2% with ASPC1 cells; 25% in the test with H727 cells; 36% in the test with A549 cells; 36% with H460 cells; 26% in the test on HCT116 cells; 34% in the test with H358 cells.
With `CCc1c(F)ccc2cc(O)cc(N3CCc4c(nc(OC[C@@]56CCCN5C[C@H](F)C6)nc4N4CCCCC(COCC(=O)N(C)C)C4)C3)c12` (stereo partly drawn) [Example 251, 2-((1-(7-(8-ethyl-7-fluoro-3-hydroxynaphthalen-1-yl)-2-(((2R,7aS)-2-fluorohexahydro-1H-pyrrolizin-7a-yl)methoxy)-5,6,7,8-tetrahydropyrido[3,4-d]pyrimidin-4-yl)azepan-3-yl)methoxy)-N,N-dimethylacetamide], the IC50 with ASPC1 cells came out at 1310 nM; in the test with H727 cells, 1200 nM; on KRas G12D, 7 nM; at KRas G12R, 3 nM; at KRas G12V, 5 nM. For the same molecule, the inhibition at 0.1 µM is -4% in the test with ASPC1 cells; 3% in the test on H727 cells; 21% in the test with A549 cells; 15% in the test on H460 cells; -7% in the test with HCT116 cells; 2% in the test with H358 cells.
As for `CCc1c(F)ccc2cc(O)cc(N3CCc4c(nc(OC[C@@]56CCCN5C[C@H](F)C6)nc4N4CCCCC(COC(C)C(=O)N(C)C)C4)C3)c12` (stereo partly drawn) [Example 252, 2-((1-(7-(8-ethyl-7-fluoro-3-hydroxynaphthalen-1-yl)-2-(((2R,7aS)-2-fluorohexahydro-1H-pyrrolizin-7a-yl)methoxy)-5,6,7,8-tetrahydropyrido[3,4-d]pyrimidin-4-yl)azepan-3-yl)methoxy)-N,N-dimethylpropanamide], the IC50 was 1950 nM in the test on ASPC1 cells; 1740 nM in the test on H727 cells; 23 nM at KRas G12D; 7 nM at KRas G12R; 11 nM on KRas G12V. Moreover, the inhibition at 0.1 µM in the test on ASPC1 cells is -5%; in the test with H727 cells it was 0%; in the test on A549 cells it was 16%; in the test on H460 cells, 3%; with HCT116 cells, 14%; in the test on H358 cells, -7%.
As for `CCc1c(F)ccc2cc(O)cc(N3CCc4c(nc(OC[C@@]56CCCN5C[C@H](F)C6)nc4N4CCCCC(C(=O)N(C)C)C4)C3)c12` (stereo partly drawn) [Example 313, 1-(7-(8-ethyl-7-fluoro-3-hydroxynaphthalen-1-yl)-2-(((2R,7aS)-2-fluorohexahydro-1H-pyrrolizin-7a-yl)methoxy)-5,6,7,8-tetrahydropyrido[3,4-d]pyrimidin-4-yl)-N,N-dimethylazepane-3-carboxamide], the IC50 in the test on ASPC1 cells was determined as 2400 nM; in the test with H727 cells, 747 nM; at KRas G12D, 38 nM; on KRas G12R, 25 nM; at KRas G12V, 7 nM. In addition, the inhibition at 0.1 µM with A549 cells turned out to be 7%; in the test on H460 cells, 31%; in the test on HCT116 cells, 2%; in the test on H358 cells, 8%.
On to `CCc1c(F)ccc2cc(O)cc(N3CCc4c(nc(OC[C@@]56CCCN5C[C@H](F)C6)nc4N4CCCCC(C(=O)NC)C4)C3)c12` (stereo partly drawn) [Example 314, 1-(7-(8-ethyl-7-fluoro-3-hydroxynaphthalen-1-yl)-2-(((2R,7aS)-2-fluorohexahydro-1H-pyrrolizin-7a-yl)methoxy)-5,6,7,8-tetrahydropyrido[3,4-d]pyrimidin-4-yl)-N-methylazepane-3-carboxamide], for which the IC50 with ASPC1 cells amounted to 803 nM; in the test with H727 cells, 406 nM; at KRas G12D, 10 nM; at KRas G12R, 7 nM; at KRas G12V, 3 nM. Moreover, the inhibition at 0.1 µM in the test with A549 cells is 3%; in the test with H460 cells it was 13%; in the test with HCT116 cells it was 4%; with H358 cells it was 0%.
